Experiment: Human HepG2 cell viability assay in 384 well format
Assay type: toxicity, cell-based
Design: dose 125 nL, time 70.5 hour; concentration not given beside the values
Settings: HepG2 cells, read-out: Inhibition
For `Cc1nc(C)n(CC2CN(CC(=O)Nc3cccnc3)CCO2)n1` (configuration not stated), the cytotoxicity at 70.5 h was -2.68%. `CC1=NOC2(CCN(Cc3c[nH]c4ccccc34)CC2)C1` gave a cytotoxicity at 70.5 h of -9.21%. Work on `Cc1cc(C)n2c(CCCNS(=O)(=O)c3ccc(F)cc3)nnc2n1` yielded a cytotoxicity at 70.5 h of -8.75%. With `CCOCC1CN(S(=O)(=O)CC)Cc2nn(C)cc21` (configuration not stated) the cytotoxicity at 70.5 h was -8.48%. Molecule `COCCn1ccc(=O)c(OCC(=O)Nc2ccc(Br)cc2)c1C` has a cytotoxicity at 70.5 h of -7.36%. Molecule `Clc1ccccc1OC1CN(CC2CCOC2)C1` (configuration not stated) has a cytotoxicity at 70.5 h of 8.25%. In the case of `Fc1ccccc1CN1CCCN(c2ccc3cc[nH]c3n2)CC1`, the cytotoxicity at 70.5 h is reported as -4.59%. For `CN(CCCc1cnn(C)c1)C(=O)C1CCC(=O)N(C2CCCC2)C1` (configuration not stated), the cytotoxicity at 70.5 h was -0.586%. `Cc1nnc(NCC(c2ccco2)N2CCCCC2)c(C#N)c1C` (configuration not stated) showed a cytotoxicity at 70.5 h of -0.616%. `CC(O)CN1CCN(Cc2coc(-c3ccccc3Cl)n2)CC1` (configuration not stated) gave a cytotoxicity at 70.5 h of -4.11%. In the case of `CN1CCCC(CNC(=O)CN(C)S(=O)(=O)c2cccnc2)C1` (configuration not stated), the cytotoxicity at 70.5 h is reported as 6.09%. For `Cc1cnn(CCNCc2ccccc2OCc2ccccn2)c1`, the cytotoxicity at 70.5 h was -0.163%. In the case of `CC(C)c1nc(C2CCCN2C(=O)c2ccc(C#N)cn2)no1` (configuration not stated), the cytotoxicity at 70.5 h is reported as 1.98%. Molecule `COc1ncccc1NC(=O)C1CC1` has a cytotoxicity at 70.5 h of -1.48%. For `O=C(c1ccco1)N1CC[C@@H]2O[C@@H](COCCN3CCCC3)CC[C@@H]21`, the cytotoxicity at 70.5 h was -3.08%. Work on `Cn1ccnc1COc1ccc(NC(=O)C2CCCO2)cc1` (configuration not stated) yielded a cytotoxicity at 70.5 h of 3.57%. `CCn1cc(CN2CCCN(C(=O)CCCn3cncn3)CC2)cn1` gave a cytotoxicity at 70.5 h of 1.08%. With `COc1cccc(C(=O)N2CCC(Nc3ccc(C)nn3)CC2)c1` the cytotoxicity at 70.5 h was 1.25%. Work on `CC(C)CNc1nccc(-c2cnc3sc(Cl)cn3c2=O)n1` yielded a cytotoxicity at 70.5 h of -6.64%. With `CCOC(=O)c1ccc(CNC(=O)c2ccncc2Cl)o1` the cytotoxicity at 70.5 h was -7.26%. `CC(C)N(C)Cc1cn2c(n1)CN(C(=O)c1ccc[nH]1)CC2` gave a cytotoxicity at 70.5 h of -5.19%. In the case of `CN(Cc1ccc(F)cc1)C(=O)CN1CCCCC1Cn1cncn1` (configuration not stated), the cytotoxicity at 70.5 h is reported as -3.07%. `CCCNC(=O)COc1ccc(C)cn1` gave a cytotoxicity at 70.5 h of -0.369%. With `Cc1nn(CCC(=O)NC(C(=O)O)c2c(C)n[nH]c2C)c(C)c1C` (configuration not stated) the cytotoxicity at 70.5 h was -3.08%. With `CCSCC(C)NCc1nc(-c2cccnc2)no1` (configuration not stated) the cytotoxicity at 70.5 h was 19.3%. With `CCCC(O)CN1CCC(=O)N(Cc2ccccc2)Cc2ccccc21` (configuration not stated) the cytotoxicity at 70.5 h was 2.6%. Molecule `CC(=O)N1CCC(Cc2cnc(Nc3cc(C)on3)cn2)CC1` has a cytotoxicity at 70.5 h of -4.74%. In the case of `CN(C)CCN1CCO[C@H]2CN(C(=O)c3ccsc3)C[C@H]21`, the cytotoxicity at 70.5 h is reported as -6.87%. `O=C(c1cc(C2CC2)[nH]n1)N1CCN(Cc2ccsc2)CC1` showed a cytotoxicity at 70.5 h of 22%. `COc1ccc(CN(C)[C@@H]2CN(C(=O)c3ccnn3C)C[C@H]2O)cc1` gave a cytotoxicity at 70.5 h of -3.38%. Molecule `Cn1cccc1CN1CCc2c(nc(-c3ccccn3)[nH]c2=O)C1` has a cytotoxicity at 70.5 h of -2.89%. Molecule `Cc1ccc(C(=O)NCCNC(=O)c2cncnc2C)cc1F` has a cytotoxicity at 70.5 h of -11.3%. In the case of `O=C(O)c1ccnc(-c2ccnc(NCCc3ccc(F)cc3)n2)c1`, the cytotoxicity at 70.5 h is reported as -5.83%. Molecule `CCn1cc(CN2CCN(C)C3(CCC(=O)N(CC4CC4)CC3)C2)cn1` (configuration not stated) has a cytotoxicity at 70.5 h of 1.18%. For `O=C(NCC1CCOC1)c1csc(-c2ccc(F)cc2)n1` (configuration not stated), the cytotoxicity at 70.5 h was -6.03%. With `O=C(Cc1ccc2c(c1)OCC2)Nc1nc[nH]n1` the cytotoxicity at 70.5 h was -8.03%. `CC(C)(C)c1cc(NC(=O)CN(Cc2ccco2)Cc2cccs2)on1` gave a cytotoxicity at 70.5 h of 4.01%. `COCCc1nc(CSc2ccncc2)n(C)n1` gave a cytotoxicity at 70.5 h of 1.99%. In the case of `c1cnn(CC2CCCCN2c2ncnc3ccsc23)c1` (configuration not stated), the cytotoxicity at 70.5 h is reported as 18.2%. With `O=C(NCCC1CN(Cc2c[nH]cn2)CCO1)Nc1ccccc1` (configuration not stated) the cytotoxicity at 70.5 h was -8.29%. For `Cc1cc(-c2ccccc2C(=O)O)nc(C2CCCN2S(C)(=O)=O)n1` (configuration not stated), the cytotoxicity at 70.5 h was -1.81%. `CC(c1cccc(Cl)c1)N1CCN(S(C)(=O)=O)CC1` (configuration not stated) showed a cytotoxicity at 70.5 h of -1.61%. With `Cc1cc(NCc2csc(-c3ccco3)n2)ccc1C(N)=O` the cytotoxicity at 70.5 h was -6.99%. Work on `CCc1ccccc1-c1cc(C)nc(N)n1` yielded a cytotoxicity at 70.5 h of -7.75%. `CCOc1ccccc1CNC(=O)Cn1ccc2c(C)nn(C)c2c1=O` showed a cytotoxicity at 70.5 h of -5.58%. With `Cc1cc(NC(=O)CN2CCCC2c2noc(C(C)C)n2)n(C)n1` (configuration not stated) the cytotoxicity at 70.5 h was -7.61%. For `COc1cccc(-c2c[nH]c(C3CCCN3)n2)c1` (configuration not stated), the cytotoxicity at 70.5 h was -4.68%. For `CCc1nccn1C1CCCN(C(=O)c2csc(COC)n2)C1` (configuration not stated), the cytotoxicity at 70.5 h was -17.8%. Work on `Cc1noc(C)c1C[S+]([O-])Cc1cn2cccc(C)c2n1` (configuration not stated) yielded a cytotoxicity at 70.5 h of -4.48%. `O=S(=O)(C1CC1)N1CCC2(CN(c3ccccn3)C2)C1` showed a cytotoxicity at 70.5 h of -7.95%. Molecule `CS(=O)(=O)N1CCCC12CCCN(C(=O)c1ccncc1)C2` (configuration not stated) has a cytotoxicity at 70.5 h of -7.69%. With `N#Cc1ccnc(N2CCN(C(=O)c3ccc4c(c3)CCO4)CC2)c1` the cytotoxicity at 70.5 h was -3.35%. For `C[C@@H](NC(=O)c1cnccn1)c1c(-c2ccc(Cl)cc2)noc1C(=O)O`, the cytotoxicity at 70.5 h was -5.53%. In the case of `Cc1nc(CN(C)C2CCN(Cc3cccc(F)c3)C2)no1` (configuration not stated), the cytotoxicity at 70.5 h is reported as 1.26%. `CC(C)COCCNC1CCN(c2ccccn2)CC1` gave a cytotoxicity at 70.5 h of 0.205%. `CC(=O)N1CCC2(CCCN(S(=O)(=O)c3ccccc3)C2)C1` (configuration not stated) showed a cytotoxicity at 70.5 h of 20%. With `O=C(CCn1cncn1)N1CC[C@@H](c2ccc3ccccc3c2)[C@H](O)C1` the cytotoxicity at 70.5 h was -10.5%.
